The source of these data is ChEMBL document CHEMBL1201862, “PubChem BioAssay data set” (2004).

Test systems include NCI-H460; MOLT-4; HOP-62; M19-MEL; SK-MEL-28; RPMI-8226; NCI-H226; U-251; CAKI-1; HL-60; SNB-75; OVCAR-3; HCT-116; HCC 2998; SK-MEL-5; SW-620; NCI-H522; SR; T47D; NCI/ADR-RES.
Holding throughout (assay): NCI tumour cell line growth inhibition, 48 h

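Cells were grown in 96-well plates and exposed to each compound for 48 hours at five concentrations; endpoints were interpolated linearly between bracketing concentrations, or set to the highest concentration if not reached. GI50: concentration for 50% inhibition of growth.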 Active and inactive are the calls of the source. Rule as the data show it: active = GI50 up to about 1.1 µM and inactive = higher.

For the molecule `c1ccc(CN2CCc3[nH]c4ccccc4c3C2)cc1`, the GI50 is 16.7 µM (inactive) in the test on NCI-H460; 22.2 µM (inactive) in the test on MOLT-4; 41 µM (inactive) in the test with HOP-62; 26.5 µM (inactive) in the test with M19-MEL; 17.5 µM (inactive) in the test on SK-MEL-28; 23.8 µM (inactive) in the test with RPMI-8226. Also, the GI50 in the test on NCI-H226 was 33.4 µM (inactive); in the test on U-251, 21.4 µM (inactive); with CAKI-1, 36.5 µM (inactive); in the test with HL-60 it was 17.6 µM (inactive); in the test with SNB-75, 51.6 µM (inactive); in the test with OVCAR-3 it was 33 µM (inactive). For the same molecule, the GI50 in the test with HCT-116 is 19.9 µM (inactive); in the test with HCC 2998, 15.4 µM (inactive); with SK-MEL-5, 16.9 µM (inactive); in the test on SW-620 it was 24.8 µM (inactive); in the test with NCI-H522, 18.1 µM (inactive); in the test on SR it was 21.9 µM (inactive). The GI50 is 14.9 µM (inactive) with T47D and 36.1 µM (inactive) with NCI/ADR-RES.
Consider `CCN(CC)CC(C)(C)C(=O)/C=C/c1ccc(/C=C/C(=O)C(C)(C)CN(CC)CC)cc1`, for which the GI50 is 0.427 µM (active) in the test with NCI-H460; 0.14 µM (active) in the test on MOLT-4; 1.95 µM (inactive) in the test with HOP-62; 0.687 µM (active) in the test on M19-MEL; 0.796 µM (active) in the test on SK-MEL-28; 0.157 µM (active) with RPMI-8226. The GI50 in the test with NCI-H226 is 2.28 µM (inactive); in the test on U-251, 0.469 µM (active); in the test with CAKI-1 it was 0.733 µM (active); in the test with HL-60, 0.0499 µM (active); in the test with SNB-75, 1.61 µM (inactive); in the test on OVCAR-3 it was 0.533 µM (active). The GI50 in the test with HCT-116 was 0.334 µM (active); in the test with HCC 2998, 0.333 µM (active); in the test with SK-MEL-5, 1.54 µM (inactive); in the test with SW-620, 0.211 µM (active); in the test on NCI-H522 it was 0.104 µM (active); with SR it was 0.0893 µM (active). Moreover, the values for the GI50 in the test on T47D and in the test with NCI/ADR-RES were 0.587 µM (active) and 1.09 µM (active), respectively.
Regarding `Cn1nc2ccc3nccc(NCCNCCO)c3c2n1`, the GI50 with NCI-H460 was 18.1 µM (inactive); with MOLT-4 it was 5.56 µM (inactive); in the test on HOP-62, 47.4 µM (inactive); with M19-MEL, 40.4 µM (inactive); with SK-MEL-28, 39.4 µM (inactive); in the test on RPMI-8226 it was 26.9 µM (inactive). Besides, the GI50 in the test on NCI-H226 is 41.2 µM (inactive); in the test with U-251 it was 37 µM (inactive); with CAKI-1, 63 µM (inactive); with HL-60, > 100 µM (inactive); in the test with SNB-75 it was 45.2 µM (inactive); with OVCAR-3 it was 38.3 µM (inactive). The GI50 was 18.2 µM (inactive) in the test on HCT-116; 40.6 µM (inactive) in the test on HCC 2998; 56.5 µM (inactive) in the test on SK-MEL-5; 29.4 µM (inactive) with SW-620; 37.5 µM (inactive) in the test on NCI-H522; 10 µM (inactive) in the test on SR.
As for `CC1=C(C(=O)Nc2ccccc2)C(c2ccc(N(C)C)cc2)C(C(=O)Nc2ccccc2)=C(C)N1`, the GI50 in the test on NCI-H460 was 1.43 µM (inactive); in the test on MOLT-4 it was 2.89 µM (inactive); in the test with HOP-62, 5 µM (inactive); in the test on M19-MEL, 0.685 µM (active); in the test with SK-MEL-28, 12.4 µM (inactive); with RPMI-8226, 3.13 µM (inactive). The GI50 in the test on NCI-H226 is > 89.5 µM (inactive); in the test with U-251, 15.9 µM (inactive); in the test with CAKI-1, 25.3 µM (inactive); with HL-60, 5.3 µM (inactive); with SNB-75, 35.6 µM (inactive); with OVCAR-3, 8.69 µM (inactive). Further, the GI50 in the test with HCT-116 was 4.72 µM (inactive); in the test on HCC 2998 it was 2.86 µM (inactive); in the test on SK-MEL-5 it was 1.1 µM (active); in the test on SW-620 it was 13.7 µM (inactive); with NCI-H522, 6.64 µM (inactive); in the test with SR, 11.1 µM (inactive). In addition, the results for the GI50 in the test on T47D and with NCI/ADR-RES were 3.33 µM (inactive) and > 100 µM (inactive), respectively.
With `NNC(=O)C(=O)N/N=C1/CCCC1C(=O)CCC(=O)Nc1ccc(Cl)cc1` (centres undefined), the GI50 in the test on NCI-H460 was > 100 µM (inactive); with MOLT-4, > 100 µM (inactive); in the test on HOP-62, > 100 µM (inactive); in the test with M19-MEL it was 89.3 µM (inactive); in the test with SK-MEL-28, > 100 µM (inactive); in the test with RPMI-8226, > 100 µM (inactive). The GI50 is > 100 µM (inactive) with NCI-H226; > 100 µM (inactive) with U-251; 20.5 µM (inactive) with CAKI-1; > 100 µM (inactive) in the test on HL-60; > 100 µM (inactive) in the test on SNB-75; > 100 µM (inactive) with OVCAR-3. Besides, the GI50 in the test with HCT-116, in the test on HCC 2998, in the test with SK-MEL-5, in the test with SW-620, in the test on NCI-H522 and with SR was > 100 µM (inactive) in each case.
With `O=C(CN1CCN(c2ccccc2)CC1)N1CCc2c([nH]c3ccccc23)C1c1cccnc1` (centres undefined), the GI50 in the test with NCI-H460 is 36.9 µM (inactive); with MOLT-4 it was > 100 µM (inactive); in the test on HOP-62 it was 34.1 µM (inactive); with M19-MEL, > 95.9 µM (inactive); in the test on SK-MEL-28, > 95.3 µM (inactive); in the test on RPMI-8226, > 100 µM (inactive). Also, the GI50 with NCI-H226 was > 100 µM (inactive); in the test on U-251 it was 14.3 µM (inactive); in the test with CAKI-1, 25.3 µM (inactive); in the test with HL-60 it was 30.9 µM (inactive); with SNB-75, 6.92 µM (inactive); in the test with OVCAR-3, 64.9 µM (inactive). Also, the GI50 in the test with HCT-116 was 14.5 µM (inactive); in the test on HCC 2998, > 87.9 µM (inactive); with SK-MEL-5 it was 51.3 µM (inactive); in the test on SW-620, > 66.8 µM (inactive); in the test with NCI-H522, 29.3 µM (inactive); with SR, > 100 µM (inactive).
As for `CC[C@]12C=CCN3CCC4(c5cc([C@@]6(C(=O)OC)CC7CN(CCc8c6[nH]c6ccccc86)C[C@@H]6CCCC[C@H]76)c(OC)cc5N(C)C4[C@](O)(C(=O)OC)C1OC(C)=O)[C@@H]32` (some centres undefined), the GI50 was < 0.01 µM (active) with NCI-H460; < 0.01 µM (active) in the test on MOLT-4; < 0.01 µM (active) with HOP-62; < 0.01 µM (active) in the test on M19-MEL; 2.11 µM (inactive) with SK-MEL-28; < 0.01 µM (active) with RPMI-8226. Further, the GI50 in the test with NCI-H226, in the test with U-251, with HL-60, in the test on OVCAR-3, with HCT-116 and in the test with HCC 2998 was < 0.01 µM (active) in each case. Moreover, the GI50 was < 0.01 µM (active) in the test on SK-MEL-5; < 0.01 µM (active) in the test with SW-620; < 0.01 µM (active) with NCI-H522; < 0.01 µM (active) with SR; 18.2 µM (inactive) in the test with T47D; 0.0148 µM (active) in the test with NCI/ADR-RES.
Take `CCCCCCCCCC[C@@H](O)[C@@H]1CC[C@@H]([C@@H]2CC[C@@H]([C@@H](O)CCCCCCCCCC[C@H](O)CC3=CC(C)OC3=O)O2)O1` (some centres undefined): the GI50 was 0.895 µM (active) in the test with NCI-H460; 1.77 µM (inactive) in the test on MOLT-4; 2.99 µM (inactive) in the test with HOP-62; 2.22 µM (inactive) with M19-MEL; 3.36 µM (inactive) in the test on SK-MEL-28; 1.26 µM (inactive) in the test with RPMI-8226. The GI50 in the test on NCI-H226 is 1.29 µM (inactive); with U-251, 6.03 µM (inactive); with CAKI-1, 12.1 µM (inactive); in the test with HL-60, 0.102 µM (active); in the test with SNB-75 it was 3.33 µM (inactive); in the test with OVCAR-3, 3.94 µM (inactive). Also, the GI50 was 1.91 µM (inactive) in the test on HCT-116; 4.31 µM (inactive) in the test with HCC 2998; 0.0385 µM (active) with SK-MEL-5; 3.78 µM (inactive) with SW-620; 1.72 µM (inactive) in the test with NCI-H522; 2.05 µM (inactive) in the test on SR. In addition, the GI50 was 2.63 µM (inactive) in the test on T47D and 0.256 µM (active) in the test on NCI/ADR-RES.
Take `OC1[C@H]([C@H]2CCCC[C@@H]2O)CCC[C@@H]1[C@@H]1CCCC[C@H]1O` (some centres undefined): the GI50 in the test on NCI-H460, in the test with MOLT-4, in the test on HOP-62, in the test with M19-MEL, in the test on SK-MEL-28 and with RPMI-8226 was > 100 µM (inactive) throughout. The GI50 in the test with NCI-H226, with U-251, in the test on CAKI-1, in the test on HL-60, with SNB-75 and in the test on OVCAR-3 was > 100 µM (inactive) each time. Also, the GI50 in the test on HCT-116, with HCC 2998, in the test with SK-MEL-5, with SW-620, with NCI-H522 and with SR was > 100 µM (inactive) each time.
`Oc1cc(-c2cccc(Cl)c2)nc2cc3c(cc12)OCO3`: the GI50 in the test with NCI-H460 was 0.274 µM (active); in the test on MOLT-4 it was 1.89 µM (inactive); with HOP-62, 0.379 µM (active); in the test with M19-MEL, 0.327 µM (active); with RPMI-8226, 0.498 µM (active); in the test with HL-60, 0.157 µM (active). Further, the GI50 in the test with SNB-75 was 0.258 µM (active); with HCC 2998, 1.31 µM (inactive); with SK-MEL-5, 0.13 µM (active); in the test with SW-620 it was 0.351 µM (active); in the test on NCI-H522 it was 0.334 µM (active); in the test with SR, 0.342 µM (active). For the same molecule, the results for the GI50 in the test on T47D and with NCI/ADR-RES were 10.6 µM (inactive) and 0.208 µM (active), respectively.
